According to ChEMBL document CHEMBL2439988, “Inhibition of human carbonic anhydrase isoforms I-XIV with sulfonamides incorporating fluorine and 1,3,5-triazine moieties” (Bioorg Med Chem, 2013):

Legend:
Carbonic anhydrase 13 = Carbonic anhydrase 13 (Homo sapiens, UniProt Q8N1Q1); experiment: Inhibition of human recombinant carbonic anhydrase13 cytosolic isoform expressed in Escherichia coli BL21 preincubated for 15 mins by stopped-flow CO2 hydration assay
Carbonic anhydrase 7 = Carbonic anhydrase 7 (Homo sapiens, UniProt P43166); experiment: Inhibition of human recombinant carbonic anhydrase7 cytosolic isoform expressed in Escherichia coli BL21 preincubated for 15 mins by stopped-flow CO2 hydration assay
Carbonic anhydrase 7, sequence (P43166 whole entry, canonical isoform): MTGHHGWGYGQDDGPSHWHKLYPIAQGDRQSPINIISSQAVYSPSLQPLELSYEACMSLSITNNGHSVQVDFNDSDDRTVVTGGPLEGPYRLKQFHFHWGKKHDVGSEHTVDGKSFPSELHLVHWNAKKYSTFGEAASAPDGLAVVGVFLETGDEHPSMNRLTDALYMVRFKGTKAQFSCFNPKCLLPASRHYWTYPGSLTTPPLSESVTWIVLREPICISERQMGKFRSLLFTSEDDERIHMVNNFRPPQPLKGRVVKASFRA

Carbonic anhydrase 12 = Carbonic anhydrase 12 (Homo sapiens, UniProt O43570); experiment: Inhibition of human recombinant carbonic anhydrase12 transmembrane isoform expressed in Escherichia coli BL21 preincubated for 15 mins by stopped-flow CO2 hydration assay
Carbonic anhydrase 12, sequence (O43570 whole entry, canonical isoform): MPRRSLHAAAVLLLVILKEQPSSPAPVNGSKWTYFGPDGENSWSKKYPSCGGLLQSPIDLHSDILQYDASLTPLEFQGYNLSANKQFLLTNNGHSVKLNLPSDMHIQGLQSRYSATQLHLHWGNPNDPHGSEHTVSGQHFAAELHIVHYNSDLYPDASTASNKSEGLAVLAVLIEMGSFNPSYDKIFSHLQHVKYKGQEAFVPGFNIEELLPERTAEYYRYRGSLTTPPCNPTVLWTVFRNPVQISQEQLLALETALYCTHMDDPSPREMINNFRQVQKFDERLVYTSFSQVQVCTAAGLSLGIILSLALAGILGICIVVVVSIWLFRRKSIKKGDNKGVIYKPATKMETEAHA

Carbonic anhydrase 2 = Carbonic anhydrase 2 (Homo sapiens, UniProt P00918); experiment: Inhibition of human recombinant carbonic anhydrase2 cytosolic isoform expressed in Escherichia coli BL21 preincubated for 15 mins by stopped-flow CO2 hydration assay
Carbonic anhydrase 1 = Carbonic anhydrase 1 (Homo sapiens, UniProt P00915); experiment: Inhibition of human recombinant carbonic anhydrase1 cytosolic isoform expressed in Escherichia coli BL21 preincubated for 15 mins by stopped-flow CO2 hydration assay
Carbonic anhydrase 1, sequence (P00915 whole entry, canonical isoform): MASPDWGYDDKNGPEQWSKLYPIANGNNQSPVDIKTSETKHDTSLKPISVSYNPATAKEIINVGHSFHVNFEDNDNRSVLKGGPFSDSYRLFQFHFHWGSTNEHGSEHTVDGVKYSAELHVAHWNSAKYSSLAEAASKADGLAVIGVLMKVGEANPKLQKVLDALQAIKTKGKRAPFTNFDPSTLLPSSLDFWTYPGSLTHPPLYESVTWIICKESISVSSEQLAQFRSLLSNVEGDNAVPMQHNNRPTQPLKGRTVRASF

Carbonic anhydrase 14 = Carbonic anhydrase 14 (Homo sapiens, UniProt Q9ULX7); experiment: Inhibition of human recombinant carbonic anhydrase14 transmembrane isoform expressed in Escherichia coli BL21 preincubated for 15 mins by stopped-flow CO2 hydration assay
Carbonic anhydrase 14, sequence (Q9ULX7 whole entry, canonical isoform): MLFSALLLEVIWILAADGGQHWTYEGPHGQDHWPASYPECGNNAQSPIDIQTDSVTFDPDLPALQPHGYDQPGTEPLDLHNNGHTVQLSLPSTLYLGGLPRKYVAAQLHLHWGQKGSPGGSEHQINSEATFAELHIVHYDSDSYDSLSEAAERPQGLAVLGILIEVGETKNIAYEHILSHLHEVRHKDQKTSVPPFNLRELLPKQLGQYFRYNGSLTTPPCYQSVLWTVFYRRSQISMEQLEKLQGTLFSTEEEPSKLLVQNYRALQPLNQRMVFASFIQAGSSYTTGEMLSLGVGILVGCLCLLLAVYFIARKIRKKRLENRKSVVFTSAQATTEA

Carbonic anhydrase 6 = Carbonic anhydrase 6 (Homo sapiens, UniProt P23280); experiment: Inhibition of human recombinant carbonic anhydrase6 secreted isoform expressed in Escherichia coli BL21 preincubated for 15 mins by stopped-flow CO2 hydration assay
Carbonic anhydrase 6, sequence (P23280 whole entry, canonical isoform): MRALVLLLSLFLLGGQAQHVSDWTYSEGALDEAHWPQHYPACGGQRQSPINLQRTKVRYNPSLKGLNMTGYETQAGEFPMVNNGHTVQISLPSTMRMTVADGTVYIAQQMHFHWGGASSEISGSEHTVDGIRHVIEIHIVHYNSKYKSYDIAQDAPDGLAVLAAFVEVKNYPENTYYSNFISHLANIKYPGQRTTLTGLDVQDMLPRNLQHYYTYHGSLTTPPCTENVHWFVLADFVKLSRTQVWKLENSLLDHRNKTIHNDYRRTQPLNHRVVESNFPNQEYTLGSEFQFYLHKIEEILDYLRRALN

[1] = target: Carbonic anhydrase 5A, mitochondrial (Homo sapiens, UniProt P35218); experiment: Inhibition of human recombinant carbonic anhydrase5A mitochondrial isoform expressed in Escherichia coli BL21 preincubated for 15 mins by stopped-flow CO2 hydration assay
Carbonic anhydrase 5A, mitochondrial, sequence (P35218 whole entry, canonical isoform): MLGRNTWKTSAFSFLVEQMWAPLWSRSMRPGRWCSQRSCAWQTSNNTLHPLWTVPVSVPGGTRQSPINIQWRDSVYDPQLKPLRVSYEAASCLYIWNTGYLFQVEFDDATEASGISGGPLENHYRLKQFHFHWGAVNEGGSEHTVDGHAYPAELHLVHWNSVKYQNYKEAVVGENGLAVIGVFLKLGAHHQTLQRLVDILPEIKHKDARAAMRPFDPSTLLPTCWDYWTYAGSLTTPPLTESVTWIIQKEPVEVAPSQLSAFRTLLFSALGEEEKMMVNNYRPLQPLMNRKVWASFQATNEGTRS

Carbonic anhydrase 4 = Carbonic anhydrase 4 (Homo sapiens, UniProt P22748); experiment: Inhibition of human recombinant carbonic anhydrase4 membrane-bound isoform expressed in Escherichia coli BL21 preincubated for 15 mins by stopped-flow CO2 hydration assay
Carbonic anhydrase 4, sequence (P22748 whole entry, canonical isoform): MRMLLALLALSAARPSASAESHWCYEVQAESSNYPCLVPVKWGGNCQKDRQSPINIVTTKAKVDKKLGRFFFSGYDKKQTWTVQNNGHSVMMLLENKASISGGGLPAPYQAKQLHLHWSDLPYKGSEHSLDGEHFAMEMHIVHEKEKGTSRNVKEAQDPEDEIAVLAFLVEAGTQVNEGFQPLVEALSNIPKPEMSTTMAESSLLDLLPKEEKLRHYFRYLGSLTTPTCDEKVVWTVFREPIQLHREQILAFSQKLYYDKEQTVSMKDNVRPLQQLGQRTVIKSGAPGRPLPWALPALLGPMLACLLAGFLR

Carbonic anhydrase 3 = Carbonic anhydrase 3 (Homo sapiens, UniProt P07451); experiment: Inhibition of human recombinant carbonic anhydrase3 cytosolic isoform expressed in Escherichia coli BL21 preincubated for 15 mins by stopped-flow CO2 hydration assay
Carbonic anhydrase 3, sequence (P07451 whole entry, canonical isoform): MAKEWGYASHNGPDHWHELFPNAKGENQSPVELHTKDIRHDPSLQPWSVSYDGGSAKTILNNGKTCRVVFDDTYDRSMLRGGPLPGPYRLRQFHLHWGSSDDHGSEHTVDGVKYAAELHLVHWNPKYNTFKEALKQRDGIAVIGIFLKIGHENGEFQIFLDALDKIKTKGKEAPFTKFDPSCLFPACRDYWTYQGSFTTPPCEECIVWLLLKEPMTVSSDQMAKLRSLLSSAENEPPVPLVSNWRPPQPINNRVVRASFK

Carbonic anhydrase 9 = Carbonic anhydrase 9 (Homo sapiens, UniProt Q16790); experiment: Inhibition of human recombinant carbonic anhydrase9 transmembrane isoform expressed in Escherichia coli BL21 preincubated for 15 mins by stopped-flow CO2 hydration assay

Carbonic anhydrase 13, sequence (Q8N1Q1 whole entry, canonical isoform): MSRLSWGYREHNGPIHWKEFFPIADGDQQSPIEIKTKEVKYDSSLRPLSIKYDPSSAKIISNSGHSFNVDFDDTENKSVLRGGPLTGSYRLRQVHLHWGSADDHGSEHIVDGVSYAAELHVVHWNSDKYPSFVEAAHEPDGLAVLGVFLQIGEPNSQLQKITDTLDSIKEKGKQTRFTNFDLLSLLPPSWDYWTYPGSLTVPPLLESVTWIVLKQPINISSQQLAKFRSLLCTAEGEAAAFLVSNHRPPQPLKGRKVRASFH

SMILES	Ki (Carbonic anhydrase 13) [nM]	Ki (Carbonic anhydrase 7) [nM]	Ki (Carbonic anhydrase 12) [nM]	Ki (Carbonic anhydrase 2) [nM]	Ki (Carbonic anhydrase 1) [nM]	Ki (Carbonic anhydrase 14) [nM]	Ki (Carbonic anhydrase 6) [nM]	Ki [1] [nM]	Ki (Carbonic anhydrase 4) [nM]	Ki (Carbonic anhydrase 3) [nM]	Ki (Carbonic anhydrase 9) [nM]
CNc1nc(NC)nc(Nc2ccc(S(N)(=O)=O)cc2)n1	921	45	–	–	–	–	–	–	–	–	–
NS(=O)(=O)c1ccc(Nc2nc(F)nc(F)n2)cc1	1030	6.2	10	4.9	88	–	–	–	–	–	–
NS(=O)(=O)c1ccc(CCNc2nc(F)nc(F)n2)cc1	470	21.9	4.6	7.1	203	42	1390	> 10000	1360	7010	–
NS(=O)(=O)c1ccc(Nc2nc(F)nc(NCCO)n2)cc1	> 10000	8.5	17.5	5.5	238	–	–	–	–	–	208
CNc1nc(F)nc(Nc2ccc(S(N)(=O)=O)cc2)n1	735	6.7	15.4	5.4	90	–	–	–	–	–	228
COC(=O)CNc1nc(F)nc(NCCc2ccc(S(N)(=O)=O)cc2)n1	602	6.5	5	5.6	81.5	214	167	650	2740	6860	199
NS(=O)(=O)c1ccc(CCNc2nc(F)nc(NCC(=O)O)n2)cc1	> 10000	8.3	4.5	5	250	126	148	915	3660	9020	214
